{"source": "patent US20090098173A1", "about": "“TOPICAL PAIN RELIEF PRODUCT” (priority 2007, published 2009)", "origin": "cited, not measured here", "conditions": "as described in U.S. Pat. No. 7,189,760 / 7,030,273"}
{"smiles": "CCOC(=O)CNC(=O)C1CC(C)CCC1C(C)C", "note": "(stereo not shown) [ethyl ester of N-[[5-methyl-2-(1-methylethyl)cyclohexyl]carbonyl]glycine]", "values": [{"measurement": "physiological cooling activity", "result": "substantially high physiological cooling activity"}]}
